These results are taken from patent US4963585A, “Compound, WF11605 and derivative thereof” (Fujisawa Pharmaceutical Company, Ltd., priority 1988, dated 1990).

For one series, the system named is certain yeasts. The series can be described thus: Antimicrobial activity, broth dilution method (summary). It counts as cell-based. As for the experimental part: (§1) Antimicrobial activity of WF11605 was determined by broth dilution method in a conventional manner.
Background: In broth dilution the organism is exposed to a series of concentrations in liquid medium.

Series [1] relates to Torulopsis colliculsa IAM-4426. Description: Antimicrobial activity, broth dilution method. Particulars: Sabouraud 30° C. 20 hrs. Type of series: cell-based. As for the experimental part: as §1
(§2) ^1 Sabuoraud 30° C. 20 hrs

The next series relates to Candida albicans FP633. Description: Antimicrobial activity, broth dilution method. It counts as cell-based. Particulars: Sabouraud 30° C. 20 hrs. As for the experimental part:
as §1, §2

A further series concerns Candida krusei OUT-6007. Description: Antimicrobial activity, broth dilution method. Particulars: Pichia kudriavzevii, OUT6007; Sabouraud 30° C. 20 hrs. It counts as cell-based. As for the experimental part: as §1, §2
For another series, the system named is Candida utilis. Description: Antimicrobial activity, broth dilution method. It counts as cell-based. Particulars: Williopsis jadinii; Sabouraud 30° C. 20 hrs. As for the experimental part: as §1, §2
Series [2] has as its system Cryptococcus albidus AHU-3922. Description: Antimicrobial activity, broth dilution method. Type of series: cell-based. Particulars: Naganishia albida, AHU3922; Sabouraud 30° C. 20 hrs. As for the experimental part: as §1, §2
Series [3] concerns FMLP-induced degranulation in rabbit PMNLs. Description: FMLP-induced degranulation (beta-glucuronidase release) of rabbit PMNLs. Particulars: Oryctolagus cuniculus, PMNL; FMLP 7×10^-10 M, Cytochalasin B 10^-5 M; read-out: 50% inhibitory concentration (IC50), FMLP-induced degranulation. It counts as cell-based. The procedure:
(§3) PMNLs were collected from the peritoneal exudates of male Japanese White rabbits. At 16 hr after the injection of 0.1% glycogen (400 ml/animal, i.p.), the peritoneal cells were collected and washed with Eagle's minimum essential medium (MEM) and resuspended in the same medium. Over 90% of the cells were judged as PMNLs after Giemsa staining .
(§4) PMNL suspension (5×10^6 cells/ml) was incubated with test substance or vehicle at 37° C. for 5 min in plastic tubes. Leukotriene B4 (LTB4, 7×10^-8 M, Cayman Chemical Co.,), […] (FMLP, 7×10^-10 M, Sigma) or platelet activating factor (PAF, 7×10^-7 M, Sigma) together with Cytochalasin B (10^-5 M, Sigma) were added and then incubated for 5 min at 37° C. Incubation was terminated by transfer to an ice bath followed by rapid centrifugation. The cell-free supernatants were subsequently assayed for the activity of beta-glucuronidase.
(§5) The assay mixture consisted of 300 μl of acetate buffer (0.1M, pH 4.6), 100 μl of sample (supernatant obtained above) and 50 μl of methylumbelliferyl-beta-D-glucuronide (1 mM, NAKARAI CHEMICAL Co.,) as substrate. […] The fluorescence (excitation; 365 nm, emission; 455 nm) of each sample was determined.
(§6) The results are expressed as percent of total beta-glucuronidase released where total are the amount of the enzyme in the cells released by 0.1% Triton X-100.

Series [4] relates to LTB4-induced degranulation in rabbit PMNLs. The series can be described thus: LTB4-induced degranulation (beta-glucuronidase release) of rabbit PMNLs. Type of series: cell-based. The conditions noted are these: Oryctolagus cuniculus, PMNL, LTB4 7×10^-8 M, Cytochalasin B 10^-5 M. As for the experimental part:
as §3, §4
The assay mixture consisted of 300 μl of acetate buffer (0.1M, pH 4.6), 100 μl of sample (supernatant obtained above) and 50 μl of methylumbelliferyl-beta-D-glucuronide (1 mM, NAKARAI CHEMICAL Co.,) as substrate. The reaction was started by addition of the substrate and terminated after 15 min at 37° C. by the addition of 2 ml glycine buffer (0.1M, pH 10.32). The fluorescence (excitation; 365 nm, emission; 455 nm) of each sample was determined.
as §6

In series [5] the test system is PAF-induced degranulation in rabbit PMNLs. Description: PAF-induced degranulation (beta-glucuronidase release) of rabbit PMNLs. It counts as cell-based. The conditions noted are these: Oryctolagus cuniculus, PMNL; PAF 7×10^-7 M, Cytochalasin B 10^-5 M; read-out: 50% inhibitory concentration (IC50), PAF-induced degranulation. The procedure: as §3, §4, §5, §6
Series [6] has as its target T1, ^3 H-LTB4 receptor (rabbit PMNLs) (Oryctolagus cuniculus, UniProt G1U4T1).
T1 construct: endogenous in cells; host or cells: freeze-thawed polymorphonuclear leukocytes (PMNLs) from peritoneal exudate of rabbit (glycogen-elicited, male Japanese White rabbits)
The series can be described thus: Inhibition of binding of ^3 H-LTB4 to freeze-thawed PMNLs (^3 H-LTB4 receptor assay). The conditions noted are these: 4° C., 30 min; for ^3 H-LTB4 specific binding: control 1684 dpm. As for the experimental part:
PMNLs collected from the peritoneal exudate of rabbit were suspended at a concentration of 5×10^6 /ml in Eagle's MEM, stored at -20° C. and used within 2 weeks. On use, the PMNLs were thawed at room temperature and kept at 4° C.
^3 H-LTB4 ((5,6,8,9,11,14,15 (n)-^3 H)Leukotriene B4, 20 μCi/ml, Amersham Co., Japan) was diluted 20-fold with 3×10^-9M nonradioactive LTB4 in Hanks' balanced salt solution containing 10 mM N-(2-Hydroxyethyl)-piperazine-N'-2-ethanesulfonic acid, pH 7.4 (HBSS-HEPES). Fifteen microlitter of the solution was added to 60 μl HBSS-HEPES at 4° C. and then 25 μl of competitor or corresponding vehicle and 150 μl of freeze-thrawed cells (5×10^6 /ml) were also added, followed by vigorous mixing and allowing to stand for 30 min at 4° C. The resultant mixture was immediately filtered through Whatman GF/C glass filter to separate free and bound ^3 H-LTB4 using cell harvester (BRANDELL M-24R 5/8). The filter paper was quickly washed 5 times by 150 μl of cold HBSS-HEPES, dried, cut off and placed in a scintillation vial. To the vial was added 3 ml of toluene-based scintillation fluid and then the radioactivity was counted. All assay were carried out in duplicate. Specific binding defined as total binding minus non specific binding (with 0.1 μM LTB4), was about 60% of total binding.

The nature of series [7]: Acute toxicity, intraperitoneal, mice. The conditions noted are these: mouse, in vivo, ip, female, 4 weeks old. An excerpt: The WF11605 was intraperitoneally given to mice (female, 4 weeks old). From the test results, LD50 of WF11605 was more than 1 g/kg.
The next series relates to Mucor rouxianus Wehmer. Description: Antimicrobial activity, broth dilution method. Type of series: cell-based. The conditions noted are these: Sabouraud 25° C. 40 hrs. The procedure:
as §1
^2 Sabouraud 25° C. 40 hrs

A short description of another series: Solubility. It counts as physicochemical. The conditions noted are these: free form.

Values after ≈ are worked out from the molar mass of the structure shown.

T1 sequence (G1U4T1 1-363): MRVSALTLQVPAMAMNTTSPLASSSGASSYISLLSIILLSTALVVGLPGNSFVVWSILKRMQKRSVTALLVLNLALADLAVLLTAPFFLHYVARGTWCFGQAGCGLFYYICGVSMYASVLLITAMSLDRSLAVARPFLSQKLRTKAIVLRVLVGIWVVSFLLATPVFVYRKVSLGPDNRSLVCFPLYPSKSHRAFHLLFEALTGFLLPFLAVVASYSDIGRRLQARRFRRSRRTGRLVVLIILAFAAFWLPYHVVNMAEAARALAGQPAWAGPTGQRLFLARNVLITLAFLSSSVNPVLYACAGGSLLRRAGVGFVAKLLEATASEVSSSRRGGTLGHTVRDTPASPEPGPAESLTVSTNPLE

By MIC is commonly meant the smallest concentration in the dilution series that meets the test's criterion for growth inhibition. One may read the inhibition as the share of the control response that was lost under treatment. As a reminder, the LD50 is the dose at which mortality reaches 50%. A lower LD50 goes with a more toxic substance. As to `CC(=O)OC1CC2(C)C3=C(CCC2C(C)(C)C1OC1OC(CO)C(O)C(O)C1O)C1(C)CC(=O)C(C)(C(C)C(C)C)C(C(=O)O)C1(C)CC3` (stereo not shown) [WF11605], in the series on certain yeasts, the Antimicrobial activity entry was “has antimicrobial activity against certain yeasts”. Further, the MIC in [1] is 50 µg/mL (≈ 72.2 µM); in the series on Candida albicans FP633 it was 25 µg/mL (≈ 36.1 µM); against Candida krusei OUT-6007, 25 µg/mL (≈ 36.1 µM); in the series with Candida utilis, 50 µg/mL (≈ 72.2 µM); in series [2], 100 µg/mL (≈ 144 µM); against Mucor rouxianus Wehmer it was 200 µg/mL (≈ 289 µM). Also, the IC50 in series [3] was over 100 µM; in series [4] (read-out: 50% inhibitory concentration (IC50), LTB4-induced degranulation), 3 µM; in series [5] it was over 100 µM. For the same molecule, the inhibition at 100 µM in series [4] (WF11605 10^-4 M, read-out: Inhibition of total beta-glucuronidase release) turned out to be 93.6%. Moreover, the inhibition at 10 µM in series [4] (WF11605 10^-5 M, read-out: Inhibition of total beta-glucuronidase release) came to 66.9%. Also, the inhibition at 1 µM in series [4] (WF11605 10^-6 M, read-out: Inhibition of total beta-glucuronidase release) came to 30.3%. For the same molecule, in series [4] (WF11605 10^-7 M, read-out: Inhibition of total beta-glucuronidase release), the inhibition at 0.1 µM turned out to be 17.5%. The inhibition at 0.01 µM in [4] (WF11605 10^-8 M, read-out: Inhibition of total beta-glucuronidase release) came out at 12.2%. Besides, the “^3 H-LTB4 specific binding” value in series [6] (WF11605 7 × 10^-6 M) worked out at 596 dpm; in [6] (WF11605 7 × 10^-7 M), 1264 dpm. Moreover, in series [6] (WF11605 7 × 10^-6 M, read-out: inhibition of 3H-LTB4 specific binding), the inhibition at 7 µM turned out to be 64.6%. In addition, in series [6] (WF11605 7 × 10^-7 M, read-out: inhibition of 3H-LTB4 specific binding), the inhibition at 0.7 µM turned out to be 24.9%. Further, in series [7], the 50% lethal dose (LD50) was over 1000 mg/kg. Further, the Solubility entry in the series “Solubility” (H2 O, methanol, ethanol) is “sparingly soluble”; in the series “Solubility” (chloroform, ether), “insoluble”.
